Measured values: the kinase profiling compilation of Christmann-Franck et al. (2016)

How the values were obtained:
Assay in all cases: radiometric filter-binding kinase assay
PIM1 (human) = PIM1 (human) (UniProt P11309)
[1] = tested on: RPS6KB1 (human), P23443 [T412E]
PAK6 (human) = PAK6 (human) (UniProt Q9NQU5)
EEF2K (human) = EEF2K (human) (UniProt O00418)
EPHA4 (human) = EPHA4 (human) (UniProt P54764)
MAPK9 (human) = MAPK9 (human) (UniProt P45984)
DAPK1 (human) = DAPK1 (human) (UniProt P53355)
MARK3 (human) = MARK3 (human) (UniProt P27448)
PIM3 (human) = PIM3 (human) (UniProt Q86V86)
MYLK (human) = MYLK (human) (UniProt Q15746)
CDK2 CCNA2 (human) = CDK2 CCNA2 (human) (UniProt P20248+P24941)
[2] = tested on: PAK2 (human), Q13177 [T402E]
MARK4 (human) = MARK4 (human) (UniProt Q96L34)
TBK1 (human) = TBK1 (human) (UniProt Q9UHD2)
MKNK2 (human) = MKNK2 (human) (UniProt Q9HBH9)
BTK (human) = BTK (human) (UniProt Q06187)
IKBKB (human) = IKBKB (human) (UniProt O14920)
RPS6KA5 KD1 KD2 (human) = RPS6KA5 KD1 KD2 (human) (UniProt O75582)
SRPK1 (human) = SRPK1 (human) (UniProt Q96SB4)
STK3 (human) = STK3 (human) (UniProt Q13188)
MAP3K9 (human) = MAP3K9 (human) (UniProt P80192)
CHEK1 (human) = CHEK1 (human) (UniProt O14757)
Sequence of CHEK1 (human) (O14757 whole entry, looked up): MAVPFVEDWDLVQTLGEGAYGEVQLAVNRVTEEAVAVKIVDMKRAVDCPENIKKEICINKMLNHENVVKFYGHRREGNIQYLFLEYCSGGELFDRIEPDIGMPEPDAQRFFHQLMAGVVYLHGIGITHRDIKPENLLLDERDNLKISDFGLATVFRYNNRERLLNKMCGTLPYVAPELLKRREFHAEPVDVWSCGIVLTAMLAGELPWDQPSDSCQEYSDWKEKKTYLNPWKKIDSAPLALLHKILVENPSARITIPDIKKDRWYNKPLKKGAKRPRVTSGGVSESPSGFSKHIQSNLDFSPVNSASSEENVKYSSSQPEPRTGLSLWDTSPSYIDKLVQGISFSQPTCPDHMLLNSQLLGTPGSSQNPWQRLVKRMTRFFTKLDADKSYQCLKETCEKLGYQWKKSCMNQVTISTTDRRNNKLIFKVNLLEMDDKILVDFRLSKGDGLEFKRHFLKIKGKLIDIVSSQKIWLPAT

CSNK2A1 (human) = CSNK2A1 (human) (UniProt P68400)
Sequence of CSNK2A1 (human) (P68400 whole entry, looked up): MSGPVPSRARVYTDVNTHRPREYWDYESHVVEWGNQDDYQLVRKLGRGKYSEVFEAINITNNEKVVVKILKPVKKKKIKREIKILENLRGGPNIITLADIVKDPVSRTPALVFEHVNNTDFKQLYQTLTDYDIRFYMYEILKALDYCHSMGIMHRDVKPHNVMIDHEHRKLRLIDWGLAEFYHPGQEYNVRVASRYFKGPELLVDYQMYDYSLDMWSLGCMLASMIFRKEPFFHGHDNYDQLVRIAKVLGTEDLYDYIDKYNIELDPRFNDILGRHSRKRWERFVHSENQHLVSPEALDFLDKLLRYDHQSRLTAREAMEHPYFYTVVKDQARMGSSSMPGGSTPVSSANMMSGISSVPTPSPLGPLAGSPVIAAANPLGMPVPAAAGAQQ

EPHB1 (human) = EPHB1 (human) (UniProt P54762)
EPHB4 (human) = EPHB4 (human) (UniProt P54760)
PKN2 (human) = PKN2 (human) (UniProt Q16513)
Sequence of PKN2 (human) (Q16513 whole entry, looked up): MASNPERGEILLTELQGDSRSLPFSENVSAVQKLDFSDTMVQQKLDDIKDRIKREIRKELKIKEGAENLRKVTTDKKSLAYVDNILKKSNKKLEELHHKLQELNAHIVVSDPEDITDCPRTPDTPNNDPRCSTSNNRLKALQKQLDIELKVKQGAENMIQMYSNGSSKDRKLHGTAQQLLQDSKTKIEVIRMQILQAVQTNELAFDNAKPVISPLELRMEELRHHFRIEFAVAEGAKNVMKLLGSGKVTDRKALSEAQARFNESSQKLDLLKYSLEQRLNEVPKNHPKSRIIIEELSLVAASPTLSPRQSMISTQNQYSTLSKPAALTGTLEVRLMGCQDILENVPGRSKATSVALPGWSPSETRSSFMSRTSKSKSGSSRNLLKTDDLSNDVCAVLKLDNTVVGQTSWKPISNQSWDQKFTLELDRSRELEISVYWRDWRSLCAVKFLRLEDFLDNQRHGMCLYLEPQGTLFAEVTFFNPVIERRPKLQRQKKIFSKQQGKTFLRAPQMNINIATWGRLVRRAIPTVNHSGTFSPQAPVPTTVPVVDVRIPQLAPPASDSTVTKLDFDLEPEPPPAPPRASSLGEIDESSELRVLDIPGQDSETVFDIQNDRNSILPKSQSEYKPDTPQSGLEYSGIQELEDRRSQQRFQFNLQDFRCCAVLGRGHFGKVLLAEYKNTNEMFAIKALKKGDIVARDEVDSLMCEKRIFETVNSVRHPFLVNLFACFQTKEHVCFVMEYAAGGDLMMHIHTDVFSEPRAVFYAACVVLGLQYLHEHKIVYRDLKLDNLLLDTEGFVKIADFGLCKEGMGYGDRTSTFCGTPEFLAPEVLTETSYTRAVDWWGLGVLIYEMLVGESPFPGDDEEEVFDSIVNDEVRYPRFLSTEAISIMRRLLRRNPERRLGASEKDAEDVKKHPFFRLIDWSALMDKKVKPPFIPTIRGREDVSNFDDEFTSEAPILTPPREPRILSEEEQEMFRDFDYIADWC

YES1 (human) = YES1 (human) (UniProt P07947)
MAP2K1 (human) = MAP2K1 (human) (UniProt Q02750)
NEK6 (human) = NEK6 (human) (UniProt Q9HC98)
MAP3K5 (human) = MAP3K5 (human) (UniProt Q99683)
INSRR (human) = INSRR (human) (UniProt P14616)
MAP2K2 (human) = MAP2K2 (human) (UniProt P36507)
Sequence of MAP2K2 (human) (P36507 whole entry, looked up): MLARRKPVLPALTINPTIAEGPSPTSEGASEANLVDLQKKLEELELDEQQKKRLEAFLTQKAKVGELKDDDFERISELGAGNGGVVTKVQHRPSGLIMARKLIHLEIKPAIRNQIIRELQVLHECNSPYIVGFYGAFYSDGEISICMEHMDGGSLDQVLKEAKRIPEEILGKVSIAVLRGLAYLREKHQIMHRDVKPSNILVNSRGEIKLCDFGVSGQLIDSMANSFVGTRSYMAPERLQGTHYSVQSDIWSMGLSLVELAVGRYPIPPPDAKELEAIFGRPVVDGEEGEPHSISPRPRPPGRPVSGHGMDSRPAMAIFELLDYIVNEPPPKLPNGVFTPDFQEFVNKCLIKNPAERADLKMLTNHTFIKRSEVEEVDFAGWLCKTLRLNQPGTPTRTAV

TTK (human) = TTK (human) (UniProt P33981)
Sequence of TTK (human) (P33981 whole entry, looked up): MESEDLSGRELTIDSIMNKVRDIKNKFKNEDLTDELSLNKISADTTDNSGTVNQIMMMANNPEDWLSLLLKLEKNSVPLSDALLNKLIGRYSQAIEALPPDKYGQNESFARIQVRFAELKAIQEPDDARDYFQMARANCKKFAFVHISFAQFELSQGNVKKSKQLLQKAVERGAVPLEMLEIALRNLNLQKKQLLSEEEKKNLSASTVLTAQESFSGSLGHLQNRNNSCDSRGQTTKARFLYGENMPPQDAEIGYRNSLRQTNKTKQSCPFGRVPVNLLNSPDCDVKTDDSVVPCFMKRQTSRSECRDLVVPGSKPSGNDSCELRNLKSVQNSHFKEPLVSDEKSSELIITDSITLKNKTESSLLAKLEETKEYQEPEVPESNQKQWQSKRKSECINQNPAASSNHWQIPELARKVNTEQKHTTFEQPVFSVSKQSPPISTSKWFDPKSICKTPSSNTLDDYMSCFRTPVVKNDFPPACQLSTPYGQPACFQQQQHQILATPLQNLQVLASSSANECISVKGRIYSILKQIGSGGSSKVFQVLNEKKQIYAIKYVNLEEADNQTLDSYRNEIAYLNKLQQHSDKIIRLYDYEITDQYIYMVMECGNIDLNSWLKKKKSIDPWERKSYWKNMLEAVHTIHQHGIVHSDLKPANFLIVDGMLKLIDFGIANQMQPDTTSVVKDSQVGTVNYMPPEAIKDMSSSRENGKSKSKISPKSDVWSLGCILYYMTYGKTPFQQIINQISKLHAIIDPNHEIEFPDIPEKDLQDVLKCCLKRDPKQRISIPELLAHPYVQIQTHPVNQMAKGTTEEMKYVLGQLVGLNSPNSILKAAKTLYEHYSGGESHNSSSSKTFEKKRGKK

PIM2 (human) = PIM2 (human) (UniProt Q9P1W9)
Sequence of PIM2 (human) (Q9P1W9 whole entry, looked up): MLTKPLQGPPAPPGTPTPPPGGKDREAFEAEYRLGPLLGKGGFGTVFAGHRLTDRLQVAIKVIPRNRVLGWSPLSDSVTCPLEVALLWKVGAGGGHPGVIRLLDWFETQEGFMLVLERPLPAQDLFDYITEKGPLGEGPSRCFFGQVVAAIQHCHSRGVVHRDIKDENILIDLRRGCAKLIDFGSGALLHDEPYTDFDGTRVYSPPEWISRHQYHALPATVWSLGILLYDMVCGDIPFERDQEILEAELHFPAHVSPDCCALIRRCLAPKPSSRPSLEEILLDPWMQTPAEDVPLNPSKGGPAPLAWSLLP

MAPKAPK2 (human) = MAPKAPK2 (human) (UniProt P49137)
GCK (human) = GCK (human) (UniProt Q12851)

Sequence of PIM1 (human) (P11309 whole entry, looked up): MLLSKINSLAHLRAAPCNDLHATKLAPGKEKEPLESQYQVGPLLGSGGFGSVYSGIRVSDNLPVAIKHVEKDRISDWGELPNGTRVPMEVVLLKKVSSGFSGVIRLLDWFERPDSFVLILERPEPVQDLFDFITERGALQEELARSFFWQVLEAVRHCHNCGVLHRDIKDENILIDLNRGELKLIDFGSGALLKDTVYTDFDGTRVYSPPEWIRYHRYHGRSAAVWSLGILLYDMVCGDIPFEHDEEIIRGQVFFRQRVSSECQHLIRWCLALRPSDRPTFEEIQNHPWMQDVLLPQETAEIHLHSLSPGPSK
Sequence of PAK6 (human) (Q9NQU5 whole entry, looked up): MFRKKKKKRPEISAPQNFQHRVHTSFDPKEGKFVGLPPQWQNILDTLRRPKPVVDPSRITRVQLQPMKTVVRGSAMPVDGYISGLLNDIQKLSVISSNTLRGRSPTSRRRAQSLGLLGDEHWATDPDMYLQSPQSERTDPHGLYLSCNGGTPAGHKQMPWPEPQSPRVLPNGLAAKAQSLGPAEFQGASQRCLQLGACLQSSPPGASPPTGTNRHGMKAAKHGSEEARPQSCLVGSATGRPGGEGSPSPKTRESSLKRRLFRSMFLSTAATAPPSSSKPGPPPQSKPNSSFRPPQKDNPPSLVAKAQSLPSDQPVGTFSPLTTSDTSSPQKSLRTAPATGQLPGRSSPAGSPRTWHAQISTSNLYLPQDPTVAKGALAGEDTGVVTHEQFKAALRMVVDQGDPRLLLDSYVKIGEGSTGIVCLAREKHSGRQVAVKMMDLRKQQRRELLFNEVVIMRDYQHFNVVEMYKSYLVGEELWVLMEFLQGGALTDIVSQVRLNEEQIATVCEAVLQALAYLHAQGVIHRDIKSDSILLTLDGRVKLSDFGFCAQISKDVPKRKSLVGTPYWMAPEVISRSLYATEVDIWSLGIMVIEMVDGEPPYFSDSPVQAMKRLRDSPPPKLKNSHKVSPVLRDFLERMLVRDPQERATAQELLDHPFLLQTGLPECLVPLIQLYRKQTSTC
Sequence of MAPK9 (human) (P45984 whole entry, looked up): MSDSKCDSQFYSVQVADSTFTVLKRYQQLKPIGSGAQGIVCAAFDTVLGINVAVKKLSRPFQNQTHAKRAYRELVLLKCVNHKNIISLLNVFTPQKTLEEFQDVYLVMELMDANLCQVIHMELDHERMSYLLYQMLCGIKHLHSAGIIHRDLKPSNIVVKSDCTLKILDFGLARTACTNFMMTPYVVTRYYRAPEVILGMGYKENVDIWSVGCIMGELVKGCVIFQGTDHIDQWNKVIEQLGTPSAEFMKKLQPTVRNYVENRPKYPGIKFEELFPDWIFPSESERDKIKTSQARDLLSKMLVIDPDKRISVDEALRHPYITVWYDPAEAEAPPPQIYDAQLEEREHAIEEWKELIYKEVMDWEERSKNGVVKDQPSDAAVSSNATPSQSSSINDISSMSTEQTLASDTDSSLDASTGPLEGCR

## CN1CCN(CCOc2cc(OC3CCOCC3)c3c(Nc4c(Cl)ccc5c4OCO5)ncnc3c2)CC1
PIM1 (human); compound 0.1 µM
  residual activity: 116%
[1]; compound 0.1 µM
  residual activity: 93%
PAK6 (human); compound 0.1 µM
  residual activity: 90%
EEF2K (human); compound 0.1 µM
  residual activity: 65%
EPHA4 (human); compound 0.1 µM
  residual activity: 49%
MAPK9 (human); compound 0.1 µM
  residual activity: 88%
DAPK1 (human); compound 0.1 µM
  residual activity: 82%
MARK3 (human); compound 0.1 µM
  residual activity: 99%
PIM3 (human); compound 0.1 µM
  residual activity: 111%
MYLK (human); compound 0.1 µM
  residual activity: 97%
CDK2 CCNA2 (human); compound 0.1 µM
  residual activity: 96%
[2]; compound 0.1 µM
  residual activity: 94%
MARK4 (human); compound 0.1 µM
  residual activity: 95%
TBK1 (human); compound 0.1 µM
  residual activity: 103%
MKNK2 (human); compound 0.1 µM
  residual activity: 110%
BTK (human); compound 0.1 µM
  residual activity: 57%
IKBKB (human); compound 0.1 µM
  residual activity: 119%
RPS6KA5 KD1 KD2 (human); compound 0.1 µM
  residual activity: 103%
SRPK1 (human); compound 0.1 µM
  residual activity: 82%
STK3 (human); compound 0.1 µM
  residual activity: 102%
MAP3K9 (human); compound 0.1 µM
  residual activity: 86%
CHEK1 (human); compound 0.1 µM
  residual activity: 106%
CSNK2A1 (human); compound 0.1 µM
  residual activity: 112%
EPHB1 (human); compound 0.1 µM
  residual activity: 81%
EPHB4 (human); compound 0.1 µM
  residual activity: 76%
PKN2 (human); compound 0.1 µM
  residual activity: 103%
YES1 (human); compound 0.1 µM
  residual activity: 4%
MAP2K1 (human); compound 0.1 µM
  residual activity: 97%
NEK6 (human); compound 0.1 µM
  residual activity: 101%
MAP3K5 (human); compound 0.1 µM
  residual activity: 100%
INSRR (human); compound 0.1 µM
  residual activity: 123%
MAP2K2 (human); compound 0.1 µM
  residual activity: 107%
TTK (human); compound 0.1 µM
  residual activity: 112%
PIM2 (human); compound 0.1 µM
  residual activity: 105%

## CC(C)C[C@H](NC(=O)CNC(=O)c1cc(Cl)ccc1Cl)B1OC(=O)CC(CC(=O)O)(C(=O)O)O1 (some centres undefined)
PIM1 (human); compound 10.0 µM
  residual activity: 88%
[1]; compound 10.0 µM
  residual activity: 94%
PAK6 (human); compound 10.0 µM
  residual activity: 68%
EEF2K (human); compound 10.0 µM
  residual activity: 83%
EPHA4 (human); compound 10.0 µM
  residual activity: 69%
MAPK9 (human); compound 10.0 µM
  residual activity: 87%
DAPK1 (human); compound 10.0 µM
  residual activity: 88%
MARK3 (human); compound 10.0 µM
  residual activity: 72%
PIM3 (human); compound 10.0 µM
  residual activity: 92%
MYLK (human); compound 10.0 µM
  residual activity: 103%
CDK2 CCNA2 (human); compound 10.0 µM
  residual activity: 86%
[2]; compound 10.0 µM
  residual activity: 92%
MARK4 (human); compound 10.0 µM
  residual activity: 86%
TBK1 (human); compound 10.0 µM
  residual activity: 81%
MKNK2 (human); compound 10.0 µM
  residual activity: 80%
BTK (human); compound 10.0 µM
  residual activity: 90%
IKBKB (human); compound 10.0 µM
  residual activity: 97%
SRPK1 (human); compound 10.0 µM
  residual activity: 90%
STK3 (human); compound 10.0 µM
  residual activity: 100%
MAP3K9 (human); compound 10.0 µM
  residual activity: 75%
CHEK1 (human); compound 10.0 µM
  residual activity: 107%
CSNK2A1 (human); compound 10.0 µM
  residual activity: 82%
EPHB1 (human); compound 10.0 µM
  residual activity: 75%
EPHB4 (human); compound 10.0 µM
  residual activity: 91%
PKN2 (human); compound 10.0 µM
  residual activity: 86%
YES1 (human); compound 10.0 µM
  residual activity: 82%
MAPKAPK2 (human); compound 10.0 µM
  residual activity: 88%
MAP2K1 (human); compound 10.0 µM
  residual activity: 92%
NEK6 (human); compound 10.0 µM
  residual activity: 82%
MAP3K5 (human); compound 10.0 µM
  residual activity: 81%
INSRR (human); compound 10.0 µM
  residual activity: 104%
MAP2K2 (human); compound 10.0 µM
  residual activity: 94%
TTK (human); compound 10.0 µM
  residual activity: 93%
PIM2 (human); compound 10.0 µM
  residual activity: 94%

## C=CC(=O)N1CCC[C@@H](n2nc(-c3ccc(Oc4ccccc4)cc3)c3c(N)ncnc32)C1
PIM1 (human); compound 0.1 µM
  residual activity: 98%
PIM1 (human); compound 1.0 µM
  residual activity: 95%
PIM1 (human); compound 10.0 µM
  residual activity: 81%
[1]; compound 0.1 µM
  residual activity: 93%
[1]; compound 1.0 µM
  residual activity: 86%
[1]; compound 10.0 µM
  residual activity: 66%
PAK6 (human); compound 0.1 µM
  residual activity: 95%
PAK6 (human); compound 1.0 µM
  residual activity: 97%
PAK6 (human); compound 10.0 µM
  residual activity: 82%
EEF2K (human); compound 0.1 µM
  residual activity: 88%
EEF2K (human); compound 10.0 µM
  residual activity: 90%
EPHA4 (human); compound 1.0 µM
  residual activity: 92%
EPHA4 (human); compound 10.0 µM
  residual activity: 45%
MAPK9 (human); compound 0.1 µM
  residual activity: 89%
MAPK9 (human); compound 1.0 µM
  residual activity: 101%
DAPK1 (human); compound 0.1 µM
  residual activity: 95%
DAPK1 (human); compound 1.0 µM
  residual activity: 95%
DAPK1 (human); compound 10.0 µM
  residual activity: 84%
MARK3 (human); compound 0.1 µM
  residual activity: 98%
MARK3 (human); compound 1.0 µM
  residual activity: 94%
MARK3 (human); compound 10.0 µM
  residual activity: 76%
PIM3 (human); compound 0.1 µM
  residual activity: 94%
PIM3 (human); compound 1.0 µM
  residual activity: 96%
PIM3 (human); compound 10.0 µM
  residual activity: 88%
MYLK (human); compound 0.1 µM
  residual activity: 79%
MYLK (human); compound 1.0 µM
  residual activity: 90%
MYLK (human); compound 10.0 µM
  residual activity: 44%
CDK2 CCNA2 (human); compound 0.1 µM
  residual activity: 89%
CDK2 CCNA2 (human); compound 1.0 µM
  residual activity: 99%
CDK2 CCNA2 (human); compound 10.0 µM
  residual activity: 84%
[2]; compound 0.1 µM
  residual activity: 87%
[2]; compound 1.0 µM
  residual activity: 72%
[2]; compound 10.0 µM
  residual activity: 55%
MARK4 (human); compound 0.1 µM
  residual activity: 111%
MARK4 (human); compound 1.0 µM
  residual activity: 114%
MARK4 (human); compound 10.0 µM
  residual activity: 80%
TBK1 (human); compound 0.1 µM
  residual activity: 102%
TBK1 (human); compound 1.0 µM
  residual activity: 113%
TBK1 (human); compound 10.0 µM
  residual activity: 90%
MKNK2 (human); compound 0.1 µM
  residual activity: 106%
MKNK2 (human); compound 10.0 µM
  residual activity: 67%
GCK (human); compound 0.1 µM
  residual activity: 98%
GCK (human); compound 1.0 µM
  residual activity: 77%
GCK (human); compound 10.0 µM
  residual activity: 38%
IKBKB (human); compound 0.1 µM
  residual activity: 94%
IKBKB (human); compound 1.0 µM
  residual activity: 107%
IKBKB (human); compound 10.0 µM
  residual activity: 90%
RPS6KA5 KD1 KD2 (human); compound 0.1 µM
  residual activity: 94%
RPS6KA5 KD1 KD2 (human); compound 1.0 µM
  residual activity: 101%
RPS6KA5 KD1 KD2 (human); compound 10.0 µM
  residual activity: 55%
SRPK1 (human); compound 0.1 µM
  residual activity: 100%
SRPK1 (human); compound 1.0 µM
  residual activity: 115%
SRPK1 (human); compound 10.0 µM
  residual activity: 99%
STK3 (human); compound 0.1 µM
  residual activity: 88%
STK3 (human); compound 1.0 µM
  residual activity: 65%
STK3 (human); compound 10.0 µM
  residual activity: 41%
MAP3K9 (human); compound 0.1 µM
  residual activity: 104%
MAP3K9 (human); compound 1.0 µM
  residual activity: 89%
MAP3K9 (human); compound 10.0 µM
  residual activity: 27%
CHEK1 (human); compound 0.1 µM
  residual activity: 76%
CHEK1 (human); compound 1.0 µM
  residual activity: 93%
CHEK1 (human); compound 10.0 µM
  residual activity: 77%
CSNK2A1 (human); compound 0.1 µM
  residual activity: 104%
CSNK2A1 (human); compound 1.0 µM
  residual activity: 115%
CSNK2A1 (human); compound 10.0 µM
  residual activity: 111%
EPHB1 (human); compound 0.1 µM
  residual activity: 72%
EPHB1 (human); compound 1.0 µM
  residual activity: 90%
EPHB1 (human); compound 10.0 µM
  residual activity: 86%
EPHB4 (human); compound 0.1 µM
  residual activity: 83%
EPHB4 (human); compound 1.0 µM
  residual activity: 74%
EPHB4 (human); compound 10.0 µM
  residual activity: 39%
PKN2 (human); compound 0.1 µM
  residual activity: 109%
PKN2 (human); compound 1.0 µM
  residual activity: 100%
PKN2 (human); compound 10.0 µM
  residual activity: 90%
YES1 (human); compound 0.1 µM
  residual activity: 20%
YES1 (human); compound 1.0 µM
  residual activity: 16%
YES1 (human); compound 10.0 µM
  residual activity: 13%
MAPKAPK2 (human); compound 0.1 µM
  residual activity: 88%
MAPKAPK2 (human); compound 1.0 µM
  residual activity: 95%
MAPKAPK2 (human); compound 10.0 µM
  residual activity: 90%
MAP2K1 (human); compound 0.1 µM
  residual activity: 85%
MAP2K1 (human); compound 1.0 µM
  residual activity: 76%
MAP2K1 (human); compound 10.0 µM
  residual activity: 56%
NEK6 (human); compound 0.1 µM
  residual activity: 76%
NEK6 (human); compound 1.0 µM
  residual activity: 99%
NEK6 (human); compound 10.0 µM
  residual activity: 93%
MAP3K5 (human); compound 0.1 µM
  residual activity: 103%
MAP3K5 (human); compound 1.0 µM
  residual activity: 128%
MAP3K5 (human); compound 10.0 µM
  residual activity: 111%
INSRR (human); compound 0.1 µM
  residual activity: 94%
INSRR (human); compound 1.0 µM
  residual activity: 101%
INSRR (human); compound 10.0 µM
  residual activity: 29%
MAP2K2 (human); compound 0.1 µM
  residual activity: 94%
MAP2K2 (human); compound 1.0 µM
  residual activity: 94%
MAP2K2 (human); compound 10.0 µM
  residual activity: 63%
TTK (human); compound 0.1 µM
  residual activity: 95%
TTK (human); compound 1.0 µM
  residual activity: 101%
TTK (human); compound 10.0 µM
  residual activity: 82%
PIM2 (human); compound 0.1 µM
  residual activity: 99%
PIM2 (human); compound 1.0 µM
  residual activity: 100%
PIM2 (human); compound 10.0 µM
  residual activity: 97%
